Where “and” joins values, the source holds several entries; their conditions need not be identical. Identical values can stand only once.
Key:
E. aerogenes ATCC 13048 = assay: Antibacterial activity (MIC, broth dilution); assay type: cell-based; conditions: CLSI
Procedure: (§1) Determination of the Minimal Inhibitory Concentrations (MIC) by dilution was carried out by broth dilution according to CLSI standards.

E. cloacae ATCC 13047 = assay: Antibacterial activity (MIC, broth dilution); assay type: cell-based; conditions: CLSI
Procedure: as §1

[1] = test system: K. pneumoniae NR-15410 (KPC); assay: Antibacterial activity (MIC, broth dilution); assay type: cell-based; conditions: CLSI
Procedure: as §1

[2] = test system: K. pneumoniae NR-15411 (KPC); assay: Antibacterial activity (MIC, broth dilution); assay type: cell-based; conditions: CLSI
Procedure: as §1

P. aeruginosa PA01 = assay: Antibacterial activity (MIC, broth dilution); assay type: cell-based; conditions: CLSI
Procedure: as §1

P. aeruginosa X13273 = assay: Antibacterial activity (MIC, broth dilution); assay type: cell-based; conditions: CLSI, in µg/mL
Procedure: as §1

[3] = test system: S. aureus HFH-30123 (MRSA); assay: Antibacterial activity (MIC, broth dilution); assay type: cell-based; conditions: CLSI
Procedure: as §1

S. aureus MRSA 1094 = assay: Antibacterial activity (MIC, broth dilution); assay type: cell-based; conditions: CLSI
Procedure: as §1

[4] = test system: lipid synthesis in E. faecalis EF1509; assay: Macromolecular synthesis assay: lipid synthesis; assay type: cell-based; conditions: Enterococcus faecalis; E. faecalis EF1509, [3H] glycerol incorporation; read-out: IC50 inhibition of lipid synthesis
Procedure: (§2) The effect of compounds on the macromolecular synthetic pathways of E. faecalis EF1509 were measured as follows: Cells were grown at 35°C overnight on Tryptic Soy Agar Broth (Remel, Lenexa, KS), and growth from the plate was used to inoculate 15 ml of Mueller Hinton Broth. The culture was grown to early exponential growth phase (OD600 = 0.2 to 0.3) while incubating in a shaker at 35°C and 150 rpm. For each macromolecular assay, the test agents were added at either 0, 0.25, 0.5, 1, 2, or 4, -fold their respective MIC values for E. faecalis EF1509.
For lipid synthesis, bacterial cells were grown to early exponential growth phase in MHB and 100 μl was added to 1.5 ml Eppendorf tubes (in triplicate) containing various concentrations of test compound or control antibiotics as described above. Following a 5 min incubation at room temp., [^3H] glycerol was added at 0.5 μCi per reaction. Reactions were allowed to proceed at room temperature for 40 min and then stopped through the addition of 375 μl of chloroform/methanol (1:2) followed by vortexing for 20 sec after. Chloroform (125 μl) was then added to each reaction and vortexed, followed by the addition of 125 μl dH2O and vortexing. […] Samples were then counted via liquid scintillation counting. […]

[5] = test system: protein synthesis in E. faecalis EF1509; assay: Macromolecular synthesis assay: protein synthesis; assay type: cell-based; conditions: Enterococcus faecalis; E. faecalis EF1509, [3H]Leucine incorporation; read-out: IC50 inhibition of protein synthesis
Procedure: as §2
For DNA and protein synthesis, 100 μl of cell culture reaching early exponential phase was added to triplicate wells containing various concentrations of test compound or control antibiotics (2.5 μl) at 40X the final concentration in 100% DMSO (0.1% methanol in water for Rifampicin). A 2.5% DMSO treated culture served as the “no drug” control for all experiments. Cells were added in 1.25X strength MHB to account for the volume of drug added to each reaction, or in M9 minimal medium for protein synthesis reactions. […] After washing five times with 200 μl per well of cold 5% TCA, the filters were allowed to dry, and then counted using a Packard Top Count microplate scintillation counter.

[6] = set-up: method as in PMID 25987836; conditions: IV, parent compound for comparison; cited from earlier work
[7] = Solubility in water (laser nephelometry); assay type: physicochemical; conditions: n=3
Procedure: Solubility in water was determined using a NEPHELOstar^plus laser nephelometer (BMG Labtech, Cary, NC) at a wavelength of 635 nm and bottom read optics using a 96-well plate format. A solution of 6jc48-1 was prepared at a concentration of 2.5 mg/ml in DMSO. The DMSO solution (10 μl) was added to wells containing water (290 μl) for a final concentration of 125 μg/ml. The plate was incubated at room temperature for two hours prior to reading in the nephalometer. All samples were run in triplicate. Control samples (DMSO with no analyte) were prepared and run in parallel.

[8] = Plasma stability (50% serum, LC/MS/MS); assay type: in vitro ADME
Procedure: Samples were taken after 2 min, 5min, 15min, 30min, 1h, 2h and 19h. Stability of compound was quantified by LC/MS/MS. Experiments were carried out by Pharmaron, Inc., (Beijing, China).

[9] = Tolerability in mice (maximum tolerated dose, clinical observations); conditions: C57BL/6J, mouse, in vivo, ip, 100 mg/kg, intraperitoneal, read-out: Dose safely administered intraperitoneally (preliminary maximum tolerated dose studies)

Row | SMILES | Antibacterial activity (MIC) E. aerogenes ATCC 13048 (E. aerogenes ATCC 13048) [µg/mL] | Antibacterial activity (MIC) E. cloacae ATCC 13047 (E. cloacae ATCC 13047) [µg/mL] | Antibacterial activity (MIC) K. pneumoniae NR-15410 (KPC) [1] [µg/mL] | Antibacterial activity (MIC) K. pneumoniae NR-15411 (KPC) [2] [µg/mL] | Antibacterial activity (MIC) P. aeruginosa PA01 (P. aeruginosa PA01) [µg/mL] | Antibacterial activity (MIC) P. aeruginosa X13273 (P. aeruginosa X13273) | Antibacterial activity (MIC) S. aureus HFH-30123 (MRSA) [3] [µg/mL] | Antibacterial activity (MIC) S. aureus MRSA 1094 (S. aureus MRSA 1094) [µg/mL] | IC50 [4] [µg/mL] | IC50 [5] [µg/mL] | AUCInf [6] [ng·h/mL] | AUClast [6] [ng·h/mL] | Cl_obs [6] [mL/min/kg] | Cmax [6] [ng/mL] | T1/2 [6] | Vss_obs [6] [L/kg] | solubility at 2 h [7] [µg/mL] | Stability in serum ([8]; after 2 hours) | Compound remaining in serum ([8]; after 19h, 10 μg/ml) [%] | MTD [9] [mg/kg]
1 | CN1/C(=C/C=C/c2cc(-c3ccccc3)cc(-c3ccccc3)[o+]2)C(C)(C)c2ccccc21 [BAS-00127538, (1-Methyl-2,4-diphenyl-6-((1E,3E)-3-(1,3,3-trimethylindolin-2-ylidene)prop-1-en-1-yl)pyryl-1-ium) tetrafluoroborate, reference compound] | 16 | 32 | 8 | 16 | 64 | >=64 | 0.5 | 0.5 | 2.3 | 1.6 | 27.9 | 26.9 | 711 | 101 | 13.2 min and 13.6 min | 12.2 |  |  |  | 
2 | CN(C)c1ccc(/C=C/c2cc(-c3ccc(Br)cc3)cc(-c3ccc(Br)cc3)[o+]2)cc1 [6jc48-1] | ≥ 64 | ≥ 64 | ≥ 64 | ≥ 64 | ≥ 64 | >=64 | 32 | 32 | 7.8 | 50.4 |  |  |  |  |  |  | > 50 | fully stable after 2 hours in serum | 46 | ≥ 100

Source: article PMC5077133, “Towards Development of Small Molecule Lipid II Inhibitors as Novel Antibiotics” (PLoS ONE, 2016)
